Source: the supplement of paper PMC11061612

Assays:
Assay in all cases: combination Emax (second highest fraction inhibited in the dose matrix, 72 h); higher = more inhibition; extreme values may be limits of the assay
[1] = tested on: CAMA-1 (Breast Carcinoma)
In short: (§1)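 Cell lines grown in DMEM/F12 or RPMI with 10% FBS were plated in 1536-well plates and held 24 hours at 37°C, 5% CO2 before 72 hours of exposure to two-drug dose matrices, with DMSO typically at 0.2%. CellTiter-Glo 2.0 luminescence gave viability, which was converted to inhibition. Vehicle wells were set to 0 and blank wells to 1. Combination Emax is the second-highest inhibition in the matrix, and Bliss excess is the observed combination effect minus the expected EA + EB − EA·EB, where EA and EB are the single-agent effects.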

[2] = tested on: COLO-678 (Colorectal Carcinoma)
In short: as §1

[3] = tested on: DND-41 (T-Lymphoblastic Leukemia)
In short: as §1

[4] = tested on: DiFi (Colorectal Carcinoma)
In short: as §1

ES1 (Ewing's Sarcoma) = tested on: ES1 (Ewing's Sarcoma)
In short: as §1

[5] = tested on: EVSA-T (Breast Carcinoma)
In short: as §1

[6] = tested on: K-562 (Chronic Myelogenous Leukemia)
In short: as §1

[7] = tested on: MFM-223 (Breast Carcinoma)
In short: as §1

[8] = tested on: MKN28 (Gastric Carcinoma)
In short: as §1

[9] = tested on: MOLT-16 (T-Lymphoblastic Leukemia)
In short: as §1

[10] = tested on: NCI-H1792 (Lung Adenocarcinoma)
In short: as §1

[11] = tested on: NCI-H847 (Small Cell Lung Carcinoma)
In short: as §1

[12] = tested on: P12-ICHIKAWA (T-Lymphoblastic Leukemia)
In short: as §1

[13] = tested on: SW837 (Colorectal Carcinoma)
In short: as §1

TC-71 (Ewing's Sarcoma) = tested on: TC-71 (Ewing's Sarcoma)
In short: as §1

[14] = tested on: TE-6 (Esophageal Squamous Cell Carcinoma)
In short: as §1

[15] = tested on: TOV-112D (Ovarian Carcinoma)
In short: as §1

U251 (Low Grade Glioma) = tested on: U251 (Low Grade Glioma)
In short: as §1

WIL2-NS (Non-Cancerous) = tested on: WIL2-NS (Non-Cancerous)
In short: as §1

WM-115 (Melanoma) = tested on: WM-115 (Melanoma)
In short: as §1

Structure (SMILES) | combination Emax [1] | combination Emax [2] | combination Emax [3] | combination Emax [4] | combination Emax (ES1 (Ewing's Sarcoma)) | combination Emax [5] | combination Emax [6] | combination Emax [7] | combination Emax [8] | combination Emax [9] | combination Emax [10] | combination Emax [11] | combination Emax [12] | combination Emax [13] | combination Emax (TC-71 (Ewing's Sarcoma)) | combination Emax [14] | combination Emax [15] | combination Emax (U251 (Low Grade Glioma)) | combination Emax (WIL2-NS (Non-Cancerous)) | combination Emax (WM-115 (Melanoma))
CC1(C)CCC(CN2CCN(c3ccc(C(=O)NS(=O)(=O)c4ccc(NCC5CCOCC5)c([N+](=O)[O-])c4)c(Oc4cnc5[nH]ccc5c4)c3)CC2)=C(c2ccc(Cl)cc2)C1 [Venetoclax] + CN(C)CCCOc1ccc(-c2ccc3ncc4c(c3c2)n(C2CCOCC2)c(=O)n4C)cn1 [AZD0156] (first compound max 1 µM, 7x7, partner max 1 µM) | 0.145 | 0.187 | 0.893 | 0.288 | 0.82 | 0.213 | 0.374 | 0.155 | 0.26 | 0.699 | 0.223 | 0.378 | 0.224 | 0.145 | 0.294 | 0.289 | 0.131 | 0.227 | 0.804 | 0.179
CC1(C)CCC(CN2CCN(c3ccc(C(=O)NS(=O)(=O)c4ccc(NCC5CCOCC5)c([N+](=O)[O-])c4)c(Oc4cnc5[nH]ccc5c4)c3)CC2)=C(c2ccc(Cl)cc2)C1 [Venetoclax] + C1CN(CCC1(C(=O)N[C@@H](CCO)C2=CC=C(C=C2)Cl)N)C3=NC=NC4=C3C=CN4 [Capivasertib] (first compound max 1 µM, 7x7, partner max 3 µM) | 0.63 | 0.0815 | 0.921 | 0.34 | 0.547 | 0.855 | 0.369 | 0.639 | 0.255 | 1 | 0.223 | 0.829 | 0.49 | 0.127 | 0.257 | 0.503 | 0.0882 | 0.303 | 0.912 | 0.397
CC1(C)CCC(CN2CCN(c3ccc(C(=O)NS(=O)(=O)c4ccc(NCC5CCOCC5)c([N+](=O)[O-])c4)c(Oc4cnc5[nH]ccc5c4)c3)CC2)=C(c2ccc(Cl)cc2)C1 [Venetoclax] + CCN(CCO)CCCOc1ccc2c(Nc3cc(CC(=O)Nc4cccc(F)c4)[nH]n3)ncnc2c1 [AZD2811] (first compound max 1 µM, 7x7, partner max 1 µM) | 0.224 | 0.245 | 0.94 | 0.486 | 0.759 | 0.427 | 0.393 | 0.252 | 0.221 | 1 | 0.216 | 1 | 1 | 0.2 | 0.88 | 0.26 | 0.266 | 0.274 | 0.857 | 0.211
Cc1c2c(nn1C)CSCc1cc(n(C)n1)CSc1cc(c3ccccc3c1)OCCCc1c(C(=O)O)n(C)c3c-2c(Cl)ccc13 [AZD5991] + C[C@@H](Nc1cc(F)cc(F)c1)c1cc(C(=O)N(C)C)cc2c(=O)cc(N3CCOCC3)oc12 [AZD8186] (first compound max 1 µM, 7x7, partner max 3 µM) | 0.98 | 0.278 | 0.0838 | 0.35 | 0.904 | 1 | 0.389 | 0.258 | 0.232 | 1 | 0.441 | 0.792 | 0.964 | 0.188 | 0.573 | 0.677 | 0.35 | 0.226 | 0.337 | 0.656
CC1(C)CCC(CN2CCN(c3ccc(C(=O)NS(=O)(=O)c4ccc(NCC5CCOCC5)c([N+](=O)[O-])c4)c(Oc4cnc5[nH]ccc5c4)c3)CC2)=C(c2ccc(Cl)cc2)C1 [Venetoclax] + Cc1cc2ncnn2cc1Nc1ncc2c(n1)n(C1CCOCC1)c(=O)n2C [AZD7648] (first compound max 1 µM, 7x7, partner max 10 µM) | 0.228 | 0.16 | 0.885 | 0.246 | 0.46 | 0.305 | 0.339 | 0.161 | 0.229 | 0.855 | 0.397 | 0.735 | 0.298 | 0.102 | 0.262 | 0.432 | 0.315 | 0.202 | 0.77 | 0.238
CN(C)CCCOc1ccc(-c2ccc3ncc4c(c3c2)n(C2CCOCC2)c(=O)n4C)cn1 [AZD0156] + O=C(c1cc(Cc2n[nH]c(=O)c3ccccc23)ccc1F)N1CCN(C(=O)C2CC2)CC1 [Olaparib] (first compound max 3 µM, partner max 3 µM) | 0.285 | 0.216 | 0.372 | 0.223 | 0.834 | 0.234 | 0.171 | 0.179 | 0.0496 | 0.914 | 0.267 | 0.64 | 0.611 | 0.185 | 0.804 | 0.417 | 0.552 | 0.294 | 0.6 | 0.356
COc1cccc(OCCCN)c1-c1cc(Nc2cnc(C#N)cn2)n[nH]1 [Prexasertib] + CCc1c2c(nc3ccc(O)cc13)-c1cc3c(c(=O)n1C2)COC(=O)[C@]3(O)CC [SN-38] (first compound max 1 µM, 7x7, partner max 0.3 µM) | 0.507 | 0.26 | 0.943 | 0.931 | 1 | 0.986 | 0.983 | 0.881 | 0.742 | 1 | 0.893 | 1 | 1 | 0.844 | 1 | 0.884 | 0.987 | 0.984 | 1 | 0.514
CC1(C)CCC(CN2CCN(c3ccc(C(=O)NS(=O)(=O)c4ccc(NCC5CCOCC5)c([N+](=O)[O-])c4)c(Oc4cnc5[nH]ccc5c4)c3)CC2)=C(c2ccc(Cl)cc2)C1 [Venetoclax] + C[C@@H](Nc1cc(F)cc(F)c1)c1cc(C(=O)N(C)C)cc2c(=O)cc(N3CCOCC3)oc12 [AZD8186] (first compound max 1 µM, 7x7, partner max 3 µM) | 0.434 | 0.119 | 0.921 | 0.178 | 0.395 | 0.79 | 0.347 | 0.11 | 0.115 | 0.629 | 0.109 | 0.844 | 0.0737 | 0.0406 | 0.147 | 0.289 | 0.102 | 0.0464 | 0.772 | 0.447
CN(CCO)CC[C@H](CSc1ccccc1)Nc1ccc(S(=O)(=O)NC(=O)c2ccc(N3CCC([C@@H](O)c4ccccc4-c4ccc(Cl)cc4)CC3)cc2)cc1S(=O)(=O)C(F)(F)F [AZD4320] + C=CCn1c(=O)c2cnc(Nc3ccc(N4CCN(C)CC4)cc3)nc2n1-c1cccc(C(C)(C)O)n1 [AZD1775] (first compound max 1 µM, partner max 1 µM) | 0.182 | 0.367 | 1 | 0.944 | 0.827 | 0.191 | 0.871 | 0.383 | 0.536 | 1 | 0.696 | 1 | 1 | 0.461 | 0.926 | 0.556 | 0.496 | 0.289 | 0.973 | 0.507
